From patent US7482425B2, “Compositions for lipid matrix-assisted chemical ligation” (Amylin Pharmaceuticals, Inc., priority 2002, dated 2009)
Where no end group is shown, it is not given here.

Details: pH 7.5

TGRPEWIWLALGTALMGLGTLYFLVKGMGVSDPDAKK [Peptide 1, TGRPEWIWLALGTALMGLGTLYFLVKGMGVSDPDAKK]
solubility: does not dissolve
